Test results taken from patent US7915227B2, “Pharmaceutical formulations employing short-chain sphingolipids and their use” (Het Nederlands Kanker Instituut, priority 2003, dated 2011).

Experiments:
BAEC = assay: Doxorubicin uptake by cultured BAEC; type: cell-based; conditions: lipid 10 μM, doxorubicin 50 μM simultaneously, 60 minutes, uptake in the absence of lipid = 100%
Method: A range of glycosphingolipids and sphingomyelins having different structures were also studied. The data are summarised in the following tables, and are expressed as a percentage (+/−SD) of doxorubicin uptake by cultured BAEC, as compared to drug uptake in the absence of lipid. Glycosphingolipids and sphingomyelins were used at 10 μM. Doxorubicin was administered simultaneously at 50 μM. After 60 minutes, cells were washed and cellular doxorubicin contents were determined fluorimetrically. Background fluorescence was subtracted from all values and all data were corrected for protein contents. Each data point is the average value of at least three independent experiments, but some lipids were assayed in 10 or more independent experiments. For each experiment 4, 6 or 8 wells with cells were treated identically and the data were then averaged (=1 experiment).

A431 cells [1] = assay: Cellular doxorubicin uptake; type: cell-based, human; conditions: 15 μM co-administered lipid, within an hour, control conditions = 100%
Method: A431 (adherent human epidermoid carcinoma cells) were cultured in Dulbecco's modified Eagle medium (DMEM), supplemented with 10% (v/v) fetal calf serum, 100 units/ml penicillin, 100 μg/ml streptomycin and 4 mM L-glutamine. Cells were sub-cultured once a week by trypsinization and maintained in a water-saturated atmosphere of 5% CO2 at 37° C. All studies were performed at a confluency of 80-90%.
For cellular doxorubicin accumulation measurements, A431 cells were cultured in flat-bottom 96-well plates. At confluency, cells were changed to serum-free medium and exposed to 50 μM free or to 20 μM liposomal doxorubicin. After extensive washing, cells were lysed in 100 μl of 1% (w/v) Triton X-100. Native fluorescence intensities were then measured by a Perkin Elmer Victor Wallac II fluorescence microplate reader, using 485 nm and 535 nm filters for excitation and emission, respectively. All values were corrected for background fluorescence. Cellular doxorubicin contents were calculated with the aid of standard amounts, and corrected for differences in protein content, as determined with the BCA assay (see, e.g., Smith et al., 1985).

A431 cells [2] = assay: Membrane leakage assay (LDH release); type: cell-based, human; conditions: for LDH release: 100 μM lipid
Method: To investigate (loss of) plasma membrane integrity, the release of the cytosolic enzyme LDH into phenol red-free cell culture medium was monitored. Flat-bottom 96-well plates containing (liposome-treated) A431 cells were centrifuged (2000 rpm, 5 minutes at 20° C.) and 50 μl aliquots of the supernatants were assessed for LDH activity with the CytoTox 96 kit, according the manufacturer's instructions. Values obtained from cells that were lysed in 0.8% Triton X-100 served as positive control. All data were corrected for protein contents, as determined with the BCA assay (see, e.g., Smith et al., 1985).

A431 cells [3] = assay: Cell viability (MTT assay); type: cell-based, human; conditions: for viability after 24 hour exposure: 24 hour exposure to 20 μM lipid
Method: For viability assessment, A431 cells were cultured in flat-bottom 96-well plates. After experimental treatments, 100 μg of the mitochondrial dehydrogenase substrate MTT was added to each well (see, e.g., Carmichael et al., 1987). Cells were then incubated for 60 minutes at 37° C. After centrifugation (3000 rpm, 10 minutes at 4° C.) supernatants were removed. The precipitated blue formazan products were then dissolved in 100 μl DMSO, and absorbencies were read in a Bio-Tek Instruments EL 340 photospectrometric microplate reader at 540 nm. Background absorbencies were subtracted and values from wells containing untreated control cells were set at 100% viability.

| SMILES | doxorubicin uptake, mean % ± SD (glycosphingolipids) (BAEC) [%] | doxorubicin uptake, mean % ± SD (sphingomyelins) (BAEC) [%] | other results |
| --- | --- | --- | --- |
| CCCCCCCCCCCCC/C=C/[C@@H](O)[C@@H](N)CO[C@@H]1O[C@H](CO)[C@@H](O)[C@H](O)[C@H]1O [C0-GlcCer] | 86.7 ± 16.2 |  |  |
| CCCCCCCCCCCCC/C=C/[C@@H](O)[C@H](COP(=O)([O-])OCC[N+](C)(C)C)NC(=O)CCCCC [C6-SM, N-hexanoyl-sphingomyelin] |  | 330.6 ± 92.3 | uptake of free doxorubicin (A431 cells [1]): 461.8±126.9%; LDH release (A431 cells [2]): 53.9±7.9%; LDH release (of total LDH activity) (A431 cells [2]; 1 hour incubation with 10 μM lipid, 0.8% Triton X-100 = 100%): 0.5±0.5%; viability after 24 hour exposure (A431 cells [3]): 29.3±5.5%; viable cells (A431 cells [3]; determined 24 hours after a 1 hour incubation with 10 μM lipid): 95.6±19.1% |
| CCCCCCCCCCCCCC=CC(O)C(COC1OC(CO)C(O)C(O)C1O)NC(=O)CCCCCCCCCCC (stereo not drawn) [C12-GlcCer] | 85.6 ± 12.0 |  |  |
| CCCCCCCCCCCCC/C=C/[C@@H](O)[C@@H](N)CO [sphingosine, (2S,3R,4E)-2-amino-4-octadecene-1,3-diol] |  | 100.4 ± 20.3 |  |
| CCCCCCCCCCCCC/C=C/[C@@H](O)C(N)CO[C@H]1O[C@H](CO)[C@@H](O[C@@H]2O[C@H](CO)[C@H](O)[C@H](O)[C@H]2O)[C@H](O)[C@@H]1O (stereo partly drawn) [C0-LacCer] | 93.8 ± 4.0 |  |  |
| CCCCCCCCCCCCC/C=C/[C@@H](O)[C@@H](N)CO[C@@H]1O[C@H](CO)[C@H](O)[C@H](O)[C@H]1O [C0-GalCer] | 98.2 ± 9.3 |  |  |
| CCCCCCCCCCCCC/C=C/[C@@H](O)[C@H](COC1OC(CO)C(O)C(O)C1O)NC(=O)CCCCCCC (stereo partly drawn) [C8-GlcCer, N-octanoyl-glucosylceramide] | 335.8 ± 88.5 |  | uptake of free doxorubicin (A431 cells [1]): 271.7±58.5%; LDH release (A431 cells [2]): 0.0±0.6%; viability after 24 hour exposure (A431 cells [3]): 71.3±5.3% |
| CCCCCCCCCCCCC/C=C/[C@@H](OC)[C@H](COP(=O)([O-])OCC[N+](C)(C)C)NC(=O)CCCCCCC [3-O-methyl-C8-SM] |  | 249.8 ± 36.5 |  |
| CCCCCCCCCCCCCC=CC(O)C(COC1OC(CO)C(OC2OC(CO)C(O)C(O)C2O)C(O)C1O)NC(=O)CCCCCCC (stereo not drawn) [C8-LacCer] | 301.5 ± 41.2 |  |  |
| CCCCCCCCCCCCC/C=C/[C@@H](O)[C@@H](N)COP(=O)([O-])OCC[N+](C)(C)C [C0-SM (SPC)] |  | 128.3 ± 19.5 |  |
| CCCCCCCCCCCCCC=CC(O)C(COC1OC(CO)C(O)C(O)C1O)NC(=O)CCCCCCC (stereo not drawn) [C8-GalCer] | 213.7 ± 31.1 |  |  |
| CCCCCCCCCCCCC/C=C/[C@@H](O)[C@H](CO)NC(=O)CCCCC [C6-Cer] |  | 96.6 ± 17.3 |  |
| CCCCCCCCCCCCC/C=C/[C@@H](O)[C@H](COP(=O)(O)O)NC(=O)CCCCCCC [C8-Cer-1-P] |  | 122.2 ± 7.2 |  |
